{"source": "patent US8501792B2", "about": "“Treating cancer with desthiazolyl ritonavir” (priority 2008, dated 2013)", "key": {"HER2": {"system": "HER2", "test": "Surface HER2 flow cytometry in SKBR3 cells", "format": "cell-based", "description": "SKBR3 cells were plated at a density of 80,000 cells/well in 6-well plates. After 18 hours, cells were exposed to ritonavir (33 μM), Desthiazolyl Ritonavir (M1) (33 μM), or DMSO. After 24 hours, cells were trypsinized, spun down, and resuspended in 50 μL of Staining Buffer (PBS 1% BSA). Cells were then incubated with anti-HER2 Ab FITC (Chemicon International; MAB4083F) for 30 minutes (on-ice and in the dark). Control cells were incubated with mouse IgG1 FITC (Biolytex). Cells were washed two times with Washing Buffer (PBS 0.1% Tween-20), resuspended in 100 μL of PBS, and acquired using FACSCalibur flow cytometer."}, "Purified mammalian Hsp90": {"system": "Purified mammalian Hsp90", "test": "Hsp90 binding on CM-5 BIAcore chip (surface plasmon resonance)", "details": "RU value versus drug concentration; FIG. 11", "source_text": "Inhibition of Hsp90 can be evaluated by surface plasmon resonance studies of a compound of formula I, using a CM-5 Biacore chip on which Hsp90 (Stressgen, Ann Arbor) has been immobilized. This method can also be used to evaluate the chaperoning activity of a compound of formula I by evaluation of luciferase refolding. See Examples 4 and 9.\nPurified mammalian Hsp90 was attached to a CM-5 BIAcore chip through an NHS ester linkage. After attachment of the Hsp90 and blocking the chip with BSA, M1 drug or a 17-AAG control was circulated through a microfluidic circuit and change in refractive index was measured by quantification of the RU value for each drug concentration. In the case of the 17-AAG control the binding was saturable and based on the kon and koff measurements, the KD was estimated to be in the 1 microM range. […] This means that there are significant differences in the binding of M-1 and may indicate alteration of the Hsp90 structure."}, "[1]": {"system": "H522 adenocarcinoma non-small cell lung cancer cell", "test": "MTT proliferation assay, H522", "format": "cell-based", "details": "10 to 80 μmol/L, 48 hours, FIG. 18", "description": "H522 adenocarcinoma non-small cell lung cancer cell proliferation was measured in 96-well plates by a 3-(4,5-dimethylthiazol-2-yl)-2,5 diphenyltetrazolium bromide (MTT) assay that measures reduction of MTT in 96-well plates (see Ohno M, Abe T. J Immunol Methods, 1991 Dec. 15; 145(1-2):199-203). The cells were exposed to 10 to 80 μmol/L ritonavir, M1 or DMSO vehicle for 48 hours and proliferation was subsequently quantified by MTT assay. The MTT was added to the medium at the endpoint and the plate was incubated for 2 hours. The plate was then centrifuged in an Allegra plate centrifuge at 2000 rpm for 5 minutes. The medium was removed, and the pellet was dissolved in 100 μL of DMSO per well. The pellet was dissolved using a gently vibrating platform. The plates were read with a BioTek Synergy plate reader in colorimetric mode at 540 nm. Each assay was performed in octuplicate for each data point."}}, "data": [{"smiles": "CC(C)c1nc(CN(C)C(=O)NC(C(=O)NC(Cc2ccccc2)CC(O)C(N)Cc2ccccc2)C(C)C)cs1", "note": "(stereo not shown) [M1, desthiazolyl ritonavir]", "values": [{"measurement": "anti-HER2 functionality / expression of surface HER2", "setting": "HER2; SKBR3, 33 μM, 24 hours, FIG. 7", "value": "exhibited anti-HER2 functionality"}, {"measurement": "reduction of the expression of surface HER2", "setting": "HER2; SKBR3 line, P<0.05", "value": "up to 80%"}, {"measurement": "binding to Hsp90, saturability", "setting": "Purified mammalian Hsp90", "value": "the binding is not saturable"}, {"measurement": "measured cell proliferation compared to cells exposed to ritonavir or DMSO", "setting": "[1]", "value": "lower"}]}]}
